# Tested on: MV-4-11 cells
# Test: Gene expression microarray analysis (Affymetrix PrimeView) and GSEA
# Assay type: cell-based, human
# Design: RFU PODN (11730768_x_at) / Fold change /veh PODN (11730768_x_at) / RFU LINC00158 (11744669_a_at) / Fold change /veh LINC00158 (11744669_a_at) / RFU DUSP10 (11751237_a_at) / Fold change /veh DUSP10 (11751237_a_at) / RFU ID3 (11757404_x_at) / Fold change /veh ID3 (11757404_x_at) / RFU PLEKHG5 (11737974_s_at) / Fold change /veh PLEKHG5 (11737974_s_at) / RFU LRRC4B (11730491_at) / Fold change /veh LRRC4B (11730491_at) / RFU GIMAP4 (11747438_a_at) / Fold change /veh GIMAP4 (11747438_a_at) / RFU KRT8 (11758183_x_at) / Fold change /veh KRT8 (11758183_x_at) / RFU CNN1 (11734310_a_at) / Fold change /veh CNN1 (11734310_a_at) / RFU VPS37D (11726825_at) / Fold change /veh VPS37D (11726825_at) / RFU C10orf10 (11716522_x_at) / Fold change /veh C10orf10 (11716522_x_at) / RFU KIR2DL2 /// KIR2DL4 /// KIR2DL5A /// KIR2DL5B /// KIR2DS1 /// KIR2DS2 /// KIR2DS3 /// KIR2DS4 /// KIR3DL3 /// KIR3DL3 /// KIR3DS1 (11738374_at) / Fold change /veh KIR2DL2 /// KIR2DL4 /// KIR2DL5A /// KIR2DL5B /// KIR2DS1 /// KIR2DS2 /// KIR2DS3 /// KIR2DS4 /// KIR3DL3 /// KIR3DL3 /// KIR3DS1 (11738374_at) / RFU C1QL1 (11718748_at) / Fold change /veh C1QL1 (11718748_at) / RFU TMPRSS4 (11747572_a_at) / Fold change /veh TMPRSS4 (11747572_a_at) / RFU HAMP (11756126_x_at) / Fold change /veh HAMP (11756126_x_at) / RFU RNFT2 (11725882_a_at) / Fold change /veh RNFT2 (11725882_a_at) / RFU NR4A2 (11747474_a_at) / Fold change /veh NR4A2 (11747474_a_at) / RFU ABCC12 (11746883_a_at) / Fold change /veh ABCC12 (11746883_a_at) / RFU TMEM136 (11760407_x_at) / Fold change /veh TMEM136 (11760407_x_at) / RFU CLDN22 /// WWC2 (11732394_at) / Fold change /veh CLDN22 /// WWC2 (11732394_at) / RFU HLA-DPB1 (11760878_x_at) / Fold change /veh HLA-DPB1 (11760878_x_at) / RFU SPINT1 (11716480_a_at) / Fold change /veh SPINT1 (11716480_a_at) / RFU GAP43 (11754022_s_at) / Fold change /veh GAP43 (11754022_s_at) / RFU A4GNT (11735810_at) / Fold change /veh A4GNT (11735810_at) / RFU PRB3 (11715151_x_at) / Fold change /veh PRB3 (11715151_x_at) / RFU TUBB4B (11761932_at) / Fold change /veh TUBB4B (11761932_at) / RFU CAPN14 (11732068_a_at) / Fold change /veh CAPN14 (11732068_a_at) / RFU TMCC2 (11721928_a_at) / Fold change /veh TMCC2 (11721928_a_at) / RFU IRGQ (11745062_a_at) / Fold change /veh IRGQ (11745062_a_at) / RFU FAM174B (11720279_a_at) / Fold change /veh FAM174B (11720279_a_at) / RFU TMPRSS4 (11748680_a_at) / Fold change /veh TMPRSS4 (11748680_a_at) / RFU FAM212B (11763350_a_at) / Fold change /veh FAM212B (11763350_a_at) / RFU PLEKHG5 (11743358_a_at) / Fold change /veh PLEKHG5 (11743358_a_at) / RFU ZSCAN30 (11745921_a_at) / Fold change /veh ZSCAN30 (11745921_a_at) / RFU CMKLR1 (11741424_a_at) / Fold change /veh CMKLR1 (11741424_a_at) / RFU LOC101060620 /// MAPK8IP1 (11723275_at) / Fold change /veh LOC101060620 /// MAPK8IP1 (11723275_at) / RFU SPTSSB (11747773_x_at) / Fold change /veh SPTSSB (11747773_x_at) / RFU PRSS12 (11739890_at) / Fold change /veh PRSS12 (11739890_at) / RFU BIN1 (11741810_x_at) / Fold change /veh BIN1 (11741810_x_at) / RFU WNT11 (11732464_a_at) / Fold change /veh WNT11 (11732464_a_at) / RFU C10orf10 (11716521_a_at) / Fold change /veh C10orf10 (11716521_a_at) / RFU C5orf56 (11738089_at) / Fold change /veh C5orf56 (11738089_at) / RFU CYB561 (11721691_x_at) / Fold change /veh CYB561 (11721691_x_at) / RFU ANKRD19P (11752326_a_at) / Fold change /veh ANKRD19P (11752326_a_at) / RFU OR2T12 /// OR2T33 /// OR2T8 (11738714_s_at) / Fold change /veh OR2T12 /// OR2T33 /// OR2T8 (11738714_s_at) / RFU VCAN (11748164_a_at) / Fold change /veh VCAN (11748164_a_at) / RFU JSRP1 (11732532_at) / Fold change /veh JSRP1 (11732532_at) / RFU KRTAP10-11 (11738290_x_at) / Fold change /veh KRTAP10-11 (11738290_x_at) / RFU MYO3A (11730013_a_at) / Fold change /veh MYO3A (11730013_a_at) / RFU EBF3 (11725865_a_at) / Fold change /veh EBF3 (11725865_a_at) / RFU CAMK2N1 (11719241_x_at) / Fold change /veh CAMK2N1 (11719241_x_at) / RFU C5orf56 (11738088_a_at) / Fold change /veh C5orf56 (11738088_a_at) / RFU OLFML3 (11715873_a_at) / Fold change /veh OLFML3 (11715873_a_at) / RFU LOC100653217 /// NTM (11731650_a_at) / Fold change /veh LOC100653217 /// NTM (11731650_a_at) / RFU MAPK11 (11762145_a_at) / Fold change /veh MAPK11 (11762145_a_at) / RFU FIZ1 (11724087_x_at) / Fold change /veh FIZ1 (11724087_x_at) / RFU OASL (11726364_x_at) / Fold change /veh OASL (11726364_x_at) / RFU SOX15 (11748057_x_at) / Fold change /veh SOX15 (11748057_x_at) / RFU CD79A (11719716_a_at) / Fold change /veh CD79A (11719716_a_at) / RFU HIST1H1D (11736915_at) / Fold change /veh HIST1H1D (11736915_at) / RFU CASKIN2 (11723855_a_at) / Fold change /veh CASKIN2 (11723855_a_at) / RFU LOC730098 (11760151_x_at) / Fold change /veh LOC730098 (11760151_x_at) / RFU OR4N2 (11742367_at) / Fold change /veh OR4N2 (11742367_at) / RFU PRRT2 (11749266_a_at) / Fold change /veh PRRT2 (11749266_a_at) / RFU SNX32 (11753110_a_at) / Fold change /veh SNX32 (11753110_a_at) / RFU CDHR5 (11726645_a_at) / Fold change /veh CDHR5 (11726645_a_at) / RFU RCAN1 (11760418_a_at) / Fold change /veh RCAN1 (11760418_a_at) / RFU FAM167A (11723789_a_at) / Fold change /veh FAM167A (11723789_a_at) / RFU FAM26E (11764081_at) / Fold change /veh FAM26E (11764081_at) / RFU ISYNA1 (11749810_s_at) / Fold change /veh ISYNA1 (11749810_s_at) / RFU ACY1 (11761880_at) / Fold change /veh ACY1 (11761880_at) / RFU 11764098_at / Fold change /veh 11764098_at / RFU SAMD14 (11745864_x_at) / Fold change /veh SAMD14 (11745864_x_at) / RFU NPB (11741838_a_at) / Fold change /veh NPB (11741838_a_at) / RFU TMPRSS6 (11731388_a_at) / Fold change /veh TMPRSS6 (11731388_a_at) / RFU KRTAP10-2 (11738614_at) / Fold change /veh KRTAP10-2 (11738614_at) / RFU ARHGAP8 /// PRR5-ARHGAP8 (11727945_x_at) / Fold change /veh ARHGAP8 /// PRR5-ARHGAP8 (11727945_x_at) / RFU KRTAP5-7 /// NADSYN1 (11734609_at) / Fold change /veh KRTAP5-7 /// NADSYN1 (11734609_at) / RFU RASL12 (11751679_a_at) / Fold change /veh RASL12 (11751679_a_at) / RFU CDKN2B (11736163_a_at) / Fold change /veh CDKN2B (11736163_a_at) / RFU PRF1 (11729649_at) / Fold change /veh PRF1 (11729649_at) / RFU, ZNF638 /// ZNF638-IT1 / Fold change vs veh, ZNF638 /// ZNF638-IT1 / RFU, PANK3 / Fold change vs veh, PANK3 / RFU, SH3YL1 / Fold change vs veh, SH3YL1 / RFU, ZEB2 / Fold change vs veh, ZEB2 / RFU, NRIP1 / Fold change vs veh, NRIP1 / RFU, PTTG1IP / Fold change vs veh, PTTG1IP / RFU, CAPN2 / Fold change vs veh, CAPN2 / RFU, MED14 / Fold change vs veh, MED14 / RFU, SNORA58 / Fold change vs veh, SNORA58 / RFU, C1orf63 / Fold change vs veh, C1orf63 / RFU, LRRFIP1 / Fold change vs veh, LRRFIP1 / RFU, NDUFAF7 / Fold change vs veh, NDUFAF7 / RFU, SLC12A2 / Fold change vs veh, SLC12A2 / RFU, IBTK / Fold change vs veh, IBTK / RFU, ESF1 / Fold change vs veh, ESF1 / Fold change vs veh, TMEM50B / RFU, TAOK1 / Fold change vs veh, TAOK1 / RFU, ACBD3 / Fold change vs veh, ACBD3 / RFU, TMA16 / Fold change vs veh, TMA16 / RFU, RWDD3 / Fold change vs veh, RWDD3 / RFU, BCAT1 / Fold change vs veh, BCAT1 / RFU, EDEM3 / Fold change vs veh, EDEM3 / RFU, TMEM33 / Fold change vs veh, TMEM33 / RFU, WDR75 / Fold change vs veh, WDR75 / RFU, AHCTF1 / Fold change vs veh, AHCTF1 / RFU, TFRC / Fold change vs veh, TFRC / RFU, ZDHHC17 / Fold change vs veh, ZDHHC17 / RFU, NOM1 / Fold change vs veh, NOM1 / RFU, ARL8B / Fold change vs veh, ARL8B / RFU, ZBTB11 / Fold change vs veh, ZBTB11 / RFU, TAMM41 / Fold change vs veh, TAMM41 / RFU, KIAA1704 /// LOC100996395 / Fold change vs veh, KIAA1704 /// LOC100996395 / RFU, ING1 / Fold change vs veh, ING1 / RFU, TRMT61B / Fold change vs veh, TRMT61B / RFU, FUBP3 / Fold change vs veh, FUBP3 / RFU, TP53 / Fold change vs veh, TP53 / RFU, TNKS2 / Fold change vs veh, TNKS2 / RFU, ZFP14 / Fold change vs veh, ZFP14 / RFU, ACTR2 / Fold change vs veh, ACTR2 / RFU, PPP3R1 / Fold change vs veh, PPP3R1 / RFU, PIK3R1 / Fold change vs veh, PIK3R1 / RFU, HNRNPA1 / Fold change vs veh, HNRNPA1 / RFU, RNF170 / Fold change vs veh, RNF170 / RFU, ZNF28 / Fold change vs veh, ZNF28 / RFU, RNGTT / Fold change vs veh, RNGTT / RFU, OGT / Fold change vs veh, OGT / RFU, BRD1 / Fold change vs veh, BRD1 / RFU, MARS / Fold change vs veh, MARS / RFU, ZNF655 / Fold change vs veh, ZNF655 / RFU, FAHD1 / Fold change vs veh, FAHD1 / RFU, BDP1 / Fold change vs veh, BDP1 / RFU, LRRCC1 / Fold change vs veh, LRRCC1 / RFU, ARID1A / Fold change vs veh, ARID1A / RFU, ZNF146 / Fold change vs veh, ZNF146 / RFU, ZNF330 / Fold change vs veh, ZNF330 / RFU, GPN3 / Fold change vs veh, GPN3 / RFU, C9orf123 / Fold change vs veh, C9orf123 / RFU, N4BP2L2 / Fold change vs veh, N4BP2L2 / RFU, ARFIP1 / Fold change vs veh, ARFIP1 / RFU, FAM179B / Fold change vs veh, FAM179B / RFU, BCL10 / Fold change vs veh, BCL10 / RFU, UHRF1BP1L / Fold change vs veh, UHRF1BP1L / RFU, BET1 / Fold change vs veh, BET1 / RFU, CNOT2 / Fold change vs veh, CNOT2 / RFU, ZNF268 / Fold change vs veh, ZNF268 / Fold change vs veh, ZNF507 / RFU, DGCR2 / Fold change vs veh, DGCR2 / RFU, WDSUB1 / Fold change vs veh, WDSUB1 / Fold change vs veh, HSP90B1 /// MIR3652 / RFU, ADSS / Fold change vs veh, ADSS / RFU, GK / Fold change vs veh, GK / RFU, ZNF148 / Fold change vs veh, ZNF148 / RFU, TAF9 / Fold change vs veh, TAF9 / RFU, SLC1A5 / Fold change vs veh, SLC1A5 / RFU, SLMO2 / Fold change vs veh, SLMO2 / RFU, ABCC4 / Fold change vs veh, ABCC4 / RFU, LOC101060439 /// RAP1B / Fold change vs veh, LOC101060439 /// RAP1B / RFU, RFX7 / Fold change vs veh, RFX7 / RFU, GTPBP10 / Fold change vs veh, GTPBP10 / RFU, CNEP1R1 / Fold change vs veh, CNEP1R1 / RFU, BIVM-ERCC5 /// ERCC5 / Fold change vs veh, BIVM-ERCC5 /// ERCC5 / RFU, ILF3 / Fold change vs veh, ILF3 / RFU 11762660_at / Fold change /veh 11762660_at / RFU VCAN (11757783_s_at) / Fold change /veh VCAN (11757783_s_at) / RFU DDX43 (11728927_at) / Fold change /veh DDX43 (11728927_at) / RFU KRT8 (11758188_x_at) / Fold change /veh KRT8 (11758188_x_at) / RFU NKD1 (11759106_at) / Fold change /veh NKD1 (11759106_at) / RFU SRD5A1 (11742802_a_at) / Fold change /veh SRD5A1 (11742802_a_at) / RFU TPSAB1 /// TPSB2 (11721975_s_at) / Fold change /veh TPSAB1 /// TPSB2 (11721975_s_at) / RFU GSTM3 (11746129_a_at) / Fold change /veh GSTM3 (11746129_a_at) / RFU IL23R (11737362_x_at) / Fold change /veh IL23R (11737362_x_at) / RFU TMEM51 (11727254_a_at) / Fold change /veh TMEM51 (11727254_a_at) / RFU PIWIL2 (11732686_x_at) / Fold change /veh PIWIL2 (11732686_x_at) / RFU ORM1 (11744905_x_at) / Fold change /veh ORM1 (11744905_x_at) / RFU CCDC152 (11743942_at) / Fold change /veh CCDC152 (11743942_at) / RFU ECM1 (11717891_a_at) / Fold change /veh ECM1 (11717891_a_at) / RFU IL23R (11748794_a_at) / Fold change /veh IL23R (11748794_a_at) / RFU TNFAIP8L3 (11732012_x_at) / Fold change /veh TNFAIP8L3 (11732012_x_at) / RFU MBOAT4 (11741988_at) / Fold change /veh MBOAT4 (11741988_at) / RFU 11764193_at / Fold change /veh 11764193_at / RFU TMEM53 (11763286_at) / Fold change /veh TMEM53 (11763286_at) / RFU MAGEB2 (11727129_at) / Fold change /veh MAGEB2 (11727129_at) / RFU TMEM200A (11744735_a_at) / Fold change /veh TMEM200A (11744735_a_at) / RFU CCDC152 (11751479_a_at) / Fold change /veh CCDC152 (11751479_a_at) / RFU FAM211A (11726209_a_at) / Fold change /veh FAM211A (11726209_a_at) / RFU RGS16 (11746705_a_at) / Fold change /veh RGS16 (11746705_a_at) / RFU VCAN (11755009_s_at) / Fold change /veh VCAN (11755009_s_at) / RFU RHOB (11743442_s_at) / Fold change /veh RHOB (11743442_s_at) / RFU RGS16 (11720943_a_at) / Fold change /veh RGS16 (11720943_a_at) / RFU RGS16 (11720944_at) / Fold change /veh RGS16 (11720944_at) / RFU, VPS4B / Fold change vs veh, VPS4B / RFU, CREB1 / Fold change vs veh, CREB1 / RFU, DNAJC13 / Fold change vs veh, DNAJC13 / RFU, GNAQ / Fold change vs veh, GNAQ / RFU, CDK5R1 / Fold change vs veh, CDK5R1 / RFU, ZRANB3 / Fold change vs veh, ZRANB3 / RFU, CUL4A / Fold change vs veh, CUL4A / RFU, CCNY / Fold change vs veh, CCNY / RFU, UFL1 / Fold change vs veh, UFL1 / RFU, COG3 / Fold change vs veh, COG3 / RFU, DIAPH2 / Fold change vs veh, DIAPH2 / RFU, SKA2 / Fold change vs veh, SKA2 / RFU, AFF3 / Fold change vs veh, AFF3 / RFU, LMF1 / Fold change vs veh, LMF1 / RFU, IPO11 / Fold change vs veh, IPO11 / RFU, DFFB / Fold change vs veh, DFFB / RFU, FOXP1 / Fold change vs veh, FOXP1 / RFU, CARD8 / Fold change vs veh, CARD8 / RFU, STRN3 / Fold change vs veh, STRN3 / RFU, ADK / Fold change vs veh, ADK / RFU, RASSF2 / Fold change vs veh, RASSF2 / RFU, WIPF1 / Fold change vs veh, WIPF1 / RFU, LARP1B / Fold change vs veh, LARP1B / RFU, RASA1 / Fold change vs veh, RASA1 / RFU, RB1 / Fold change vs veh, RB1 / RFU, PPFIA1 / Fold change vs veh, PPFIA1 / RFU, MAT2A / Fold change vs veh, MAT2A / RFU, CCT5 / Fold change vs veh, CCT5 / RFU, WDR92 / Fold change vs veh, WDR92 / RFU, CUX1 / Fold change vs veh, CUX1 / RFU, TTC7A / Fold change vs veh, TTC7A / RFU, TMEM135 / Fold change vs veh, TMEM135 / RFU, DEPTOR / Fold change vs veh, DEPTOR / RFU, CPM / Fold change vs veh, CPM / RFU, DNAJB6 / Fold change vs veh, DNAJB6 / RFU, CACNA2D3 / Fold change vs veh, CACNA2D3 / RFU, DTX4 / Fold change vs veh, DTX4 / RFU, TFCP2 / Fold change vs veh, TFCP2 / RFU, GMCL1 /// GMCL1P1 / Fold change vs veh, GMCL1 /// GMCL1P1 / RFU, AEBP2 / Fold change vs veh, AEBP2 / RFU, SNHG1 /// SNORD22 /// SNORD25 /// SNORD26 /// SNORD27 /// SNORD28 /// SNORD29 /// SNORD31 / Fold change vs veh, SNHG1 /// SNORD22 /// SNORD25 /// SNORD26 /// SNORD27 /// SNORD28 /// SNORD29 /// SNORD31 / Fold change (Aza/veh), C12orf56 (ProbeSet 11735607_a_at) / Fold change (ACY-1035/veh), C12orf56 (ProbeSet 11735607_a_at) / Fold change (Aza/veh), FGFR1OP (ProbeSet 11751329_s_at) / Fold change (ACY-1035/veh), FGFR1OP (ProbeSet 11751329_s_at) / Fold change (Aza/veh), VPS36 (ProbeSet 11739960_a_at) / Fold change (ACY-1035/veh), VPS36 (ProbeSet 11739960_a_at) / RFU SYPL1 (11715823_x_at) / Fold change /veh SYPL1 (11715823_x_at) / RFU IGFBP7 (11715501_s_at) / Fold change /veh IGFBP7 (11715501_s_at) / RFU REEP3 (11722064_at) / Fold change /veh REEP3 (11722064_at) / RFU IGLL1 (11728026_x_at) / Fold change /veh IGLL1 (11728026_x_at): dose or concentration left out as unconfirmed
# Settings: ProbeSet 11727958_a_at; LIST B
structure (smiles),measurement,value
Nc1ncn([C@@H]2O[C@H](CO)[C@@H](O)[C@H]2O)c(=O)n1 [azacitidine],"Fold change vs veh, ING1",0.99
